In article PMC7815092, “The role of posttranslational modifications in generating neo-epitopes that bind to rheumatoid arthritis-associated HLA-DR alleles and promote autoimmune T cell responses” (PLoS ONE, 2021):
Where a SMILES comes first, the peptide text is derived from it. Where no end group is shown, it is not given here. [ ]: non-standard residue; d: D form. Cit = NC(=O)NCCC[C@H](N)C(=O)O

Assays:
HLA-DR4 (DRB1*04:01) = target: T1, HLA-DR4 (DRB1*04:01) (Homo sapiens, UniProt P01903+P01911, A100K/A169T/F76Y/I96L/K127E/L162R/M171V/N62H/P40V/Q125Y/R42H/S133A/S149N/S66Y/V115G/V209L/W38E); assay: Competitive peptide binding assay to soluble HLA-DR4; details: for IC50: competition with 0.5 nM biotinylated CII(257–274), 10 nM soluble DR4, 18 h at 37° C
T1 construct: a new stop codon was inserted immediately prior to the transmembrane domain; made in house; host or cells: Drosophila S2 cells, vector pRmHA-3, secreted, purified on an L227 antibody column
Description: (§1) Soluble DR1 and DR4 were purified from culture supernatants of S2 drosophila cells transfected with DRB1*0101 or DRB1*0401 and DRA1*0101 as described previously. The cytoplasmic and transmembrane portions of these molecules were deleted from the cDNA using PCR, a new stop codon was inserted immediately prior to the transmembrane domain, and the resulting cDNA was cloned into the drosophila expression vector pRmHA-3. S2 cells were transfected with a 10:10:1 ratio of DRB1:DRA1:pUChsNeo using calcium phosphate precipitation. Soluble DR production was induced by 1 mM CuSO4, and 5 days later the culture supernatant was collected and adjusted to 0.05% octyl glucoside (OcG). Soluble DR was purified by passage of the supernatant over an affinity column coupled with the anti-DR antibody L227. The column was washed with 0.05% OcG and 0.15 M NaCl in phosphate buffer (PB), pH 7.5, followed by 0.05% OcG and 0.5M NaCl in PB, pH 7.5. DR was eluted with 100 mM Tris, 0.5M NaCl, pH 11.2, and the fractions were immediately neutralized with acetic acid. Recovered DR protein was concentrated using an EMD Millipore stirred cell with a YM30 disc membrane (Beverly, MA) and quantitated by OD 280 nm absorption and SDS-PAGE prior to use.
(§2) For binding assays, a 10 nM solution of purified DR1 or DR4 was incubated for 18 h at 37° C with CII(257–274) peptide (0.5 nM) that had been labeled at the NH2 terminus with biotin as previously described. Various concentrations of peptides were added as competitors to the CII peptide binding. Bound peptides were separated from free peptides by immobilizing the DR molecules on microtiter plates coated with the monoclonal antibody L227 and subsequent washing. The antibody was adhered to the plate by an overnight incubation of a 10 μg/ml solution at 4° C. Bound biotinylated peptides were detected by incubation with streptavidin-europium followed by a chelating enhancement solution. Time resolved fluorescence was quantitated using a microplate fluorometer (FluoroMark, Bio-Rad, Hercules, CA), and data are expressed as relative fluorescence units measured. The 50% inhibitory concentration values (IC50) values were calculated from the binding curves and graphed as 1/IC50 to indicate affinity relative to the control peptide. Each binding assay was performed in duplicate, and data are representative of 3 experiments.
(§3) Fig 2 Measurement of peptide binding to DRB1*04:01. 10 nM of soluble DR4 was incubated for 18 h at 37° C with 0.5 nM of biotinylated CII(257–274) peptide and various concentrations of WT and Cit-peptides as competitors. Bound peptides were separated from free peptides by immobilizing the DR molecules with an antibody on microtiter plates. Bound biotinylated peptide was detected by incubation with streptavidin-europium. Time resolved fluorescence was quantitated and data are expressed as relative fluorescence units measured. Each binding assay was performed in duplicate, and data are representative of 3 experiments.

HLA-DR1 (DRB1*01:01) = target: T2, HLA-DR1 (DRB1*01:01) (Homo sapiens, UniProt P01903+P01911, A100R/D57E/F55L/F60I/F76Y/I96L/L162R/M171V/P40L/Q125E/R42F/V115G/Y59C); assay: Competitive peptide binding assay to soluble HLA-DR1; details: competition with 0.5 nM biotinylated CII(257–274), 10 nM soluble DR1, 18 h at 37° C, time resolved fluorescence; duplicate, representative of 3 experiments
T2 construct: a new stop codon was inserted immediately prior to the transmembrane domain; made in house; host or cells: Drosophila S2 cells, vector pRmHA-3, secreted, purified on an L227 antibody column
Description: as §1, §2
as §3, with “Fig 1” for “Fig 2”, “to DRB1*01:01.” for “to DRB1*04:01.”, “soluble DR1” for “soluble DR4”

[1] = tested on: lymph node T cells from B6.DR1 mice; assay: Cytokine production by WT or Cit-peptide stimulated T cells (multiplexed bead assay); type: cell-based, mouse; parameters: key to Cytokine WT/Cit Ratio, TNFα: “–” values the result of no cytokine detected from the Cit-Ag or both antigens; details: T cells of mice immunized with the immunogen, calculated from Fig 5; for Cytokine WT/Cit Ratio, TNFα: WT over Cit stimulation, “>” = no TNFα produced by Cit-Ag stimulation; for Cytokine WT/Cit Ratio, IFNγ / Cytokine WT/Cit Ratio, IL-6 / Cytokine WT/Cit Ratio, IL-10 / Cytokine WT/Cit Ratio, IL-17A: WT-stimulated over Cit-stimulated, supernatant 3 days
Description: Cytokines produced by WT and Cit-peptide stimulated T cells were measured using a multiplexed bead assay (BioRad) and analyzed using a BioRad MagPix. B6.DR1 mice were immunized with WT or Cit-peptide, and 10 days later LN cells were recovered and re-stimulated with the corresponding WT peptide or Cit-peptide. Supernatants were collected 3 days after stimulation and assayed for expression of IFNγ, TNFα, IL-10, IL-17A, and IL-6. Standard curves were used to calculate cytokine concentration. Data are representative of two independent experiments and based on duplicate samples.
Fig 5 Cytokine production by T cells stimulated with WT or Cit-peptides. Supernatants from T cell proliferation assays in Fig 4 were collected 3 days after antigen stimulation and analyzed for the expression of proinflammatory cytokines. Cytokines produced were measured using a multiplexed bead assay and analyzed using a BioRad MagPix. Standard curves were used to calculate cytokine concentration. The cytokines produced by CII immunized T cells stimulated with the immunodominant epitope, CII(257–274), that drives autoimmune arthritis in the B6.DR1 model are shown for comparison (right panels). Data are representative of two independent experiments and based on duplicate samples.

[2] = tested on: B6.DR1 (HLA-DRB1*01:01 transgenic) mice; assay: Induction of autoimmune arthritis in HLA-DR1 transgenic mice; type: in vivo, mouse
Description: Citrullinated CII (Cit-CII) was produced using the method described by Lundberg et al. and Burkhardt et al.. 4 ml of CII at 0.25 mg/ml was dialyzed against citrullination buffer (0.1 M Tris-HCl pH 7.6, 10 mM CaCl2, 5 mM DTT), and 6.7 μl (8.5 μg, 33.4 U) of PAD4 (human recombinant, Cayman Chemical) was used to induce citrullination. Sham Cit-CII was produced using the same procedure without the PAD4 enzyme.
For arthritis induction and T cell proliferation assays, 8 to 10 week old mice were immunized subcutaneously at the base of the tail with 100 μg of peptide or bovine CII emulsified in equal volumes of CFA consisting of 85% heavy paraffin oil (Fisher Scientific), 15% mannide mono-oleate (Sigma), and 4 mg/ml of heat killed mycobacterium (H37Ra, Difco). For arthritis studies, mice were examined 3 times per week starting at day 18 after immunization and the presence of arthritis, number of affected limbs, and the severity were assessed. Severity of disease was evaluated by visual inspection and assigned a score using a scale of 0 to 4 based on the degree of inflammation as described.
Fig 8 Induction of autoimmune arthritis in HLA-DR1 mice with WT CII and Cit-CII. B6.DR1 mice were immunized with native CII or Cit-CII and the incidence (panel A) and severity (panels B, C, and D) of arthritis were monitored. […]

Compound: CC(C)C[C@H](NC(=O)[C@H](CC(C)C)NC(=O)[C@@H](NC(=O)[C@@H](N)C(C)C)C(C)C)C(=O)N[C@H](C(=O)N[C@@H](C)C(=O)N[C@H](C(=O)N[C@@H](CCC(=O)O)C(=O)NCC(=O)N[C@@H](CCCNC(N)=O)C(=O)N[C@H](C(=O)N[C@@H](CCCNC(=N)N)C(=O)N[C@H](C(=O)N[C@@H](CC(N)=O)C(=O)N[C@@H](CO)C(=O)N[C@@H](C)C(=O)N[C@@H](Cc1ccc(O)cc1)C(=O)N[C@@H](CCC(N)=O)C(=O)N[C@@H](CC(=O)O)C(=O)N[C@@H](CCCCN)C(=O)O)C(C)C)C(C)C)[C@@H](C)O)C(C)C [cit-Agg] (H-VVLLVATEG[Cit]VRVNSAYQDK-OH)
- IC50 (HLA-DR4 (DRB1*04:01)): > 5000 nM
- IC50 (HLA-DR1 (DRB1*01:01)): 82.6 nM

Compound: CSCC[C@H](NC(=O)[C@H](Cc1ccc(O)cc1)NC(=O)[C@H](CCC(N)=O)NC(=O)[C@@H](N)CC(C)C)C(=O)N[C@@H](CCCNC(N)=O)C(=O)N[C@@H](C)C(=O)N[C@@H](CC(=O)O)C(=O)N[C@@H](CCC(N)=O)C(=O)N[C@@H](C)C(=O)N[C@@H](C)C(=O)NCC(=O)NCC(=O)N[C@@H](CC(C)C)C(=O)N[C@@H](CCCNC(=N)N)C(=O)O [cit-CII] (H-LQYM[Cit]ADQAAGGLR-OH)
- IC50 (HLA-DR4 (DRB1*04:01)): 170 nM
- IC50 (HLA-DR1 (DRB1*01:01)): 121 nM

Compound: CC[C@H](C)[C@H](NC(=O)[C@H](CCCNC(N)=O)NC(=O)[C@H](CC(N)=O)NC(=O)[C@@H](NC(=O)[C@H](Cc1ccccc1)NC(=O)[C@H](CC(=O)O)NC(=O)[C@H](CCC(N)=O)NC(=O)[C@@H](N)CC(N)=O)[C@@H](C)O)C(=O)N[C@@H](CC(N)=O)C(=O)N[C@@H](CCCCN)C(=O)N[C@@H](CC(C)C)C(=O)N[C@@H](CCCCN)C(=O)N[C@@H](CC(N)=O)C(=O)N[C@@H](CO)C(=O)O [cit-Fib] (H-NQDFTN[Cit]INKLKNS-OH; N-terminus and C-terminus assumed)
- Cytokine WT/Cit Ratio, TNFα [1]: –
- Cytokine WT/Cit Ratio, IFNγ [1]: 0.2
- Cytokine WT/Cit Ratio, IL-6 [1]: 0.9
- Cytokine WT/Cit Ratio, IL-10 [1]: 0.3
- Cytokine WT/Cit Ratio, IL-17A [1]: 1.0
- IC50 (HLA-DR1 (DRB1*01:01)): > 4500 nM

Compound: CC(C)C[C@H](NC(=O)[C@H](CCCNC(=N)N)NC(=O)[C@@H](NC(=O)[C@H](C)NC(=O)[C@@H](N)CO)C(C)C)C(=O)N[C@@H](CCCNC(N)=O)C(=O)N[C@@H](CO)C(=O)N[C@@H](CO)C(=O)N[C@H](C(=O)N1CCC[C@H]1C(=O)NCC(=O)N[C@H](C(=O)N[C@@H](CCCNC(=N)N)C(=O)O)C(C)C)C(C)C [cit-Vim] (H-SAVRL[Cit]SSVPGVR-OH)
- IC50 (HLA-DR1 (DRB1*01:01)): 1.1 nM

Compound: LQYMRADQAAGGLR [CII]
- IC50 (HLA-DR4 (DRB1*04:01)): 37.4 nM
- IC50 (HLA-DR1 (DRB1*01:01)): 82.9 nM

Compound: NQDFTNRINKLKNS [Fib]
- Cytokine WT/Cit Ratio, TNFα [1]: 1.3
- Cytokine WT/Cit Ratio, IFNγ [1]: 2.5
- Cytokine WT/Cit Ratio, IL-6 [1]: 1.1
- Cytokine WT/Cit Ratio, IL-10 [1]: 1.0
- Cytokine WT/Cit Ratio, IL-17A [1]: 1.4
- binding to DR4 (in words) (HLA-DR4 (DRB1*04:01); up to 40,000:1 nM ratio of competitor:indicator peptide): essentially undetectable
- IC50 (HLA-DR1 (DRB1*01:01)): > 4500 nM

Compound: SAVRLRSSVPGVR [Vim]
- IC50 (HLA-DR1 (DRB1*01:01)): 76.1 nM

Compound: VVLLVATEGRVRVNSAYQDK [Agg]
- IC50 (HLA-DR4 (DRB1*04:01)): > 5000 nM
- IC50 (HLA-DR1 (DRB1*01:01)): 110 nM

Compound: citrullinated CII: native bovine type II collagen protein treated with PAD4 to convert Arg to Cit
- induction of autoimmune arthritis ([2]; DR1 Tg mice immunized with 100 μg in CFA): induced autoimmune arthritis
- severity of arthritis compared with WT CII ([2]; DR1 Tg mice, incidence, onset and severity score 0 to 4): no evidence that the disease was more severe than immunization with WT CII
